Entries after “also recorded” stand apart in the source; their conditions may differ. Where a name gives a salt, the structure may show the parent alone. Read-outs that look alike come from different tables or passages of the source.
Assays:
patients with narcolepsy = settings: 20 to 40 mg once a day, cited from earlier work
[1] = Blood levels of pitolisant and metabolites in healthy volunteers; format: in vivo, human; settings: 160, 200 or 240 mg, blood samples
Method: (§1) A group of 24 healthy volunteers received placebo or pitolisant monohydrochloride mg at doses of 160, 200 or 240 mg. This last dose corresponds to 6 times the maximum dosage recommended in narcolepsy.

healthy volunteers [2] = test: Adverse effect study at high doses in healthy volunteers; format: in vivo, human
Method: as §1
Furthermore, the rare abnormalities were reported in all treatment groups.

[3] = test system: human volunteers deprived of sleep; test: Fusion Frequency in volunteers deprived of sleep during 24 h; format: in vivo; settings: 30 mg once a day
Method: Pitolisant hydrochloride was administered once a day at a dose of 30 mg in human volunteers deprived of sleep during 24 h. Fatigue evaluated in these volunteers by the Fusion Frequency was not modified by either placebo or pitolisant at this dose.

healthy volunteers [4] = test: Critical Flicker Fusion Test (CFFT) in healthy volunteers; format: in vivo, human; settings: for Fusion Frequency (Flicker Fusion Test), fatigue: end of the day, healthy volunteers
Description: The flicker fusion frequency (F.F.F.) is defined as the frequency, in flickers per second, at which an interrupted light appears as a steady light. It has been established that the score made in such tests can be used as a measure of fatigue (Luczak A, et al. Ergonomics, 2005 Dec. 15; 48 (15):1770-92; Ma et al PLOS One, 2014 Feb. 5; 9 (2):e87121; Maeda et al Jpn J Radiol. 2011 August; 29 (7):483-7).
In human healthy volunteers, fatigue can be evaluated at the end of the day, when fatigue tends to increase, using a known psychometric test, the Flicker Fusion Test as reported by Luczak A, et al. Ergonomics, 2005 Dec. 15; 48 (15):1770-92; Ma et al PLOS One, 2014 Feb. 5; 9 (2):e87121; Maeda et al Jpn J Radiol. 2011 August; 29 (7):483-7.
In a group of 36 healthy volunteers, the change in Fusion Frequency was evaluated at several times along the day and after administration of either placebo or pitolisant monohydrochloride at increasing dosages (20, 40 or 60 mg).

[5] = test system: patients with Obstructive Sleep Apnea (OSA); settings: 20 mg od, cited from earlier work
histamine H3 receptors = target: T1, histamine H3 receptors (Homo sapiens, UniProt Q9Y5N1); settings: 40 mg, cited from earlier work
T1 construct: Brain Histamine H3 Receptors Occupancy; from tissue; host or cells: living human brain (in vivo PET); value cited from Rusjan et al., Br J Pharmacol 2020
T1 sequence (Q9Y5N1 whole entry): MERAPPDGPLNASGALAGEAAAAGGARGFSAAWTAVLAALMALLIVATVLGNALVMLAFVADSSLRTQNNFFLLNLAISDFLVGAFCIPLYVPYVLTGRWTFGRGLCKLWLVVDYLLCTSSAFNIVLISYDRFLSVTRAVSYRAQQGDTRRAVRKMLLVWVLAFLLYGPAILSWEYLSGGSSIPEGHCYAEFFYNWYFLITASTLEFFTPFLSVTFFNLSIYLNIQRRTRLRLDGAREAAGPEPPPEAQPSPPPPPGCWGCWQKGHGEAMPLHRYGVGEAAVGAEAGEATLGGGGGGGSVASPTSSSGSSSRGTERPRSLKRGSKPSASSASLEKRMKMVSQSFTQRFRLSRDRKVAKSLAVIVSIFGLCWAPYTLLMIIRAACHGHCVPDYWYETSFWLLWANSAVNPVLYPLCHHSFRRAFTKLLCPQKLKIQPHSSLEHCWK

healthy volunteers [6] = test: Wakefulness assessed by Spectral EEG in healthy volunteers; format: in vivo, human; settings: 40 mg
[7] = test system: patients with multiple sclerosis; settings: cited from earlier work
[8] = test system: patients with neurological conditions; settings: meta-analysis, variety of neurological conditions; cited from earlier work
[9] = 160, 200 or 240 mg, healthy volunteers

Clc1ccc(CCCOCCCN2CCCCC2)cc1 [pitolisant monohydrochloride]
EDS and cataplexy in patients with narcolepsy (patients with narcolepsy; listed as Pitolisant monohydrochloride): shown to improve | Blood level of pitolisant and metabolites [1]: dose proportionality | Number and nature of adverse events versus placebo (healthy volunteers [2]; [9]): did not differ | Fatigue evaluated by the Fusion Frequency ([3]; listed as Pitolisant hydrochloride): not modified | Fusion Frequency (Flicker Fusion Test), fatigue (healthy volunteers [4]; 60 mg orally): reversed the alteration | Fusion Frequency (Flicker Fusion Test), fatigue (healthy volunteers [4]; 60 mg orally, listed as pitolisant hydrochloride): significantly improved | Flicker Fusion Test, fatigue (conclusion) (healthy volunteers [4]; 30 to 40 mg treatment, conclusion over examples 1 and 2): not improved | Fusion Frequency (Flicker Fusion Test), fatigue (healthy volunteers [4]; lower doses (20, 40 mg)): failed. to provide a significant change | SF evaluated with the Pichot scale ([5]; OSA, trial of Dauvilliers et al. 2020): statistically different from placebo | EDS in patients with OSA ([5]; two trials): reduced | Occupancy of histamine H3 receptors (mean±SD) (histamine H3 receptors; PET scan, healthy volunteers): 84±7% | Occupancy of the brain histamine H3-receptors (in words) (histamine H3 receptors): high occupancy | Wakefulness by Spectral EEG (healthy volunteers [6]): improved significantly

NC12CC3CC(CC(C3)C1)C2 [Amantadine, amantadine]
Adverse events versus placebo [7]: more frequent adverse events | Improving multiple sclerosis fatigue versus placebo [7]: not superior to placebo

NC(=O)C[S+]([O-])C(c1ccccc1)c1ccccc1 (stereo not shown) [modafinil]
Adverse events versus placebo [7]: more frequent adverse events | Improving multiple sclerosis fatigue versus placebo [7]: not superior to placebo | Effect on EDS [8]: generally effective | Effect on fatigue [8]: without clear effect

Clc1ccc(CCCOCCCN2CCCCC2)cc1 [pitolisant, 3-(4-Chlorophenyl) propyl 3-piperidinopropyl ether]
EDS and cataplexy in patients with narcolepsy (patients with narcolepsy): significant effect | Safety and tolerability (healthy volunteers [2]; 160 mg, 200 mg and 240 mg (doses up to 240 mg od)): without overt adverse effect; also recorded: safe and well tolerated | Laboratory parameters, vital signs, physical examination and ECG parameters (healthy volunteers [2]; [9]): No significant abnormalities | Fatigue evaluated by the Fusion Frequency [3]: not improved

COC(=O)C(c1ccccc1)C1CCCCN1 (stereo not shown) [methylphenidate]
Adverse events versus placebo [7]: more frequent adverse events | Improving multiple sclerosis fatigue versus placebo [7]: not superior to placebo
